From patent US9035059B2, “Nitrogen-containing condensed heterocyclic compound” (TAISHO PHARMACEUTICAL CO., LTD., priority 2011, dated 2015)

target: MGAT2 (microsomal fraction of human small intestine) (Homo sapiens (Human), UniProt Q3SYC2); test: Test Example 2: Test of MGAT2 inhibitory action (microsomal fraction of human small intestine, 3H-labeled 2-monooleoyl glycerol); type: biochemical; details: microsomal fraction of human small intestine 5 μg/ml; 4 μM oleoyl-CoA, 1.25 μM 2-monooleoyl glycerol, 0.125 μM 3H-labeled 2-monooleoyl glycerol; room temperature 30 min; read-out: Activity Value [nM] (IC50, concentration at which 50% of the products 3H-labeled dioleoyl glycerol and trioleoyl glycerol was inhibited)
Description: An MGAT2 inhibition test for test compounds was conducted in accordance with a partially modified version of the method described in John F. Lockwood et al., Am. J. Physiol. Endocrinol. Metab., 2003, 285, E927.
A 10 mg/mL microsomal fraction of human small intestine (duodenum- and jejunum-derived fraction purchased from Becton Dickinson Japan) was used as an enzyme source.
The test was conducted using a flat-bottom 96-well plate (Corning).
A buffer solution with final concentrations of 5 mM magnesium chloride, 1.25 mg/ml bovine serum albumin and 100 mM Tris-HCl (pH=7.5) was prepared and the microsomal fraction of human small intestine was added thereto to give a final concentration of 5 μg/ml. […] Thereafter, final concentrations of 5 mM magnesium chloride, 1.25 mg/ml bovine serum albumin, 100 mM Tris-HCl (pH=7.5), 4 μM oleoyl-CoA, 1.25 μM 2-monooleoyl glycerol and 0.125 μM ^3H-labeled 2-monooleoyl glycerol (Muromachi Yakuhin Co., Ltd.) were added thereto to give a total volume of 100 μl. This mixture was reacted at room temperature for 30 min.
The reaction was stopped by adding an equal amount of isopropanol to the reaction mixture. The substrate contained in the reaction mixture (^3H-labeled 2-monooleoyl glycerol) and the reaction products (^3H-labeled dioleoyl glycerol and trioleoyl glycerol) were separated by adsorbing them onto an octadecylsilane resin (Wako gel 50C18) (Wako Pure Chemical Industries, Ltd.), removing the substrate by use of 80% isopropanol, and then eluting the reaction products with 100% isopropanol. The amounts of the reaction products were measured with MicroBeta (PerkinElmer Japan).

Chain of MGAT2 (microsomal fraction of human small intestine) (Q3SYC2 whole entry): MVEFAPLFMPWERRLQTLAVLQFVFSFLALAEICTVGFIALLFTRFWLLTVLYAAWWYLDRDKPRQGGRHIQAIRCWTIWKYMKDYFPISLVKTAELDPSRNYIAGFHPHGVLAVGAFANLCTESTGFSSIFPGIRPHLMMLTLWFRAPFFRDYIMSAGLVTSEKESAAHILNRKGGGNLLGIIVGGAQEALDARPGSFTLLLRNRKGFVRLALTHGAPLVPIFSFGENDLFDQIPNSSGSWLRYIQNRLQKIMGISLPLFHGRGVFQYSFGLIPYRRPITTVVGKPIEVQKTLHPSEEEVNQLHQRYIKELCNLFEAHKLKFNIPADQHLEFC

In order of falling IC50:
1. CC(C)(C)c1ccc(CCN2CCc3cc(S(=O)(=O)Nc4ccc(OCCOCC5CCCO5)cc4F)ccc3C2)cc1 (centres unmarked) [Working Example 8-9]  160 nM
2. Cc1ccc(-n2nc(C)c(CN3CCc4cc(S(=O)(=O)Nc5ccc(CCCC6CCCC6)cc5F)ccc4C3)c2C)cc1 [Working Example 7-80]  66 nM

target: human MGAT2 (Homo sapiens (Human), UniProt Q3SYC2); test: Test Example 1: Test of MGAT2 inhibitory action (human MGAT2 enzyme fraction from Sf9 cells, free CoA detected by CPM fluorescence); type: biochemical; details: human MGAT2 enzyme fraction expressed in Sf9 insect cells, 0.5 μg/ml, 2-monooleoyl glycerol 0.78 μM, oleoyl-CoA 5.3 μM, room temperature 20 min, listed as 10-4, read-out: Activity Value [nM] (IC50, concentration at which 50% of produced free CoA was inhibited)
Description: The MGAT2 inhibitory action of the inventive compound was measured by the methods described in Test Examples as shown below. The MGAT enzyme activity was measured based on the amount of an indicator, free Coenzyme A (CoA) which is generated by the reaction shown below, using a sulfhydryl reactive pigment (7-diethylamino-3-(4-maleimidophenyl)-4-methylcoumarin; hereinafter, sometimes abbreviated as CPM).
A test for MGAT2 inhibitory action of test compounds was conducted in accordance with a partially modified version of the method described in John F. Lockwood et al., Am. J. Physiol. Endocrinol. Metab., 2003, 285, E927.
Bac-to-Bac Baculovirus Expression System (Life Technologies Japan) was used to express human MGAT2 in insect cells (Sf9) (Life Technologies Japan). These cells were sonicated and centrifuged at 100,000 g×1 hr to give a precipitate. The precipitate was used as a human MGAT2 enzyme fraction in this assay.
This test was conducted using a black flat-bottom 96-well plate (Corning). A buffer solution with final concentrations of 5 mM magnesium chloride, 100 mM sucrose and 100 mM Tris-HCl (pH=7.5) was prepared and test compounds prepared in various concentrations using dimethyl sulfoxide were added thereto to give a final dimethyl sulfoxide concentration of 1%. The MGAT2 enzyme fraction was added thereto to give a final concentration of 0.5 μg/ml and phosphatidylcholine, 2-monooleoyl glycerol and oleoyl-CoA were added thereto to give final concentrations of 7.5 μM, 0.78 μM and 5.3 μM, respectively, before starting a reaction. The reaction was performed at room temperature for 20 min.
After 20 min, a CPM-containing solution was added thereto to give a final concentration of 5 μM before stopping the MGAT reaction. After 1 hr, a fluorescence detector (Infinite 200 from Tecan Japan) was used to measure the CPM fluorescence value of each well (excitation 380 nm, emission 460 nm).

Chain of human MGAT2 (Q3SYC2 whole entry): as above

CCCCCCOc1ccc(NS(=O)(=O)c2ccc3c(c2)CCN(C(C)Cc2ccc(C(C)(C)C)cc2)C3)c(F)c1 (single isomer, unassigned) [Working Example 10-4] showed an IC50 of 39 nM.

same assay, conditions: human MGAT2 enzyme fraction expressed in Sf9 insect cells, 0.5 μg/ml, 2-monooleoyl glycerol 0.78 μM, oleoyl-CoA 5.3 μM, room temperature 20 min, listed as 10-5, read-out: Activity Value [nM] (IC50, concentration at which 50% of produced free CoA was inhibited)

CC(Cc1ccc(C(C)(C)C)cc1)N1CCc2cc(S(=O)(=O)Nc3ccc(CCCC4CCCC4)cc3F)ccc2C1 (single isomer, unassigned) [Working Example 10-5] was tested, and the IC50 was 25 nM.

same assay, conditions: human MGAT2 enzyme fraction expressed in Sf9 insect cells, 0.5 μg/ml, 2-monooleoyl glycerol 0.78 μM, oleoyl-CoA 5.3 μM, room temperature 20 min, listed as 10-9, read-out: Activity Value [nM] (IC50, concentration at which 50% of produced free CoA was inhibited)

Work on CCCCCCCCOc1ccc(NS(=O)(=O)c2ccc3c(c2)CCN(C(C)Cc2ccc(C(C)(C)C)cc2)C3)c(F)c1 (centres unmarked) [Working Example 10-9] yielded an IC50 of 96 nM.

same assay, conditions: human MGAT2 enzyme fraction expressed in Sf9 insect cells, 0.5 μg/ml, 2-monooleoyl glycerol 0.78 μM, oleoyl-CoA 5.3 μM, room temperature 20 min, listed as 10-10, read-out: Activity Value [nM] (IC50, concentration at which 50% of produced free CoA was inhibited)

CCCCCCCCOc1ccc(NS(=O)(=O)c2ccc3c(c2)CCN(C(C)Cc2ccc(C(C)(C)C)cc2)C3)c(F)c1 (centres unmarked) [Working Example 10-10] showed an IC50 of 97 nM.

same assay, conditions: human MGAT2 enzyme fraction expressed in Sf9 insect cells, 0.5 μg/ml, 2-monooleoyl glycerol 0.78 μM, oleoyl-CoA 5.3 μM, room temperature 20 min, listed as 10-11, read-out: Activity Value [nM] (IC50, concentration at which 50% of produced free CoA was inhibited)

CC(Cc1ccc(C(C)(C)C)cc1)N1CCc2cc(S(=O)(=O)Nc3ccc(OCCCCCc4ccccc4)cc3F)ccc2C1 (single isomer, unassigned) [Working Example 10-11] showed an IC50 of 80 nM.

same assay, conditions: human MGAT2 enzyme fraction expressed in Sf9 insect cells, 0.5 μg/ml, 2-monooleoyl glycerol 0.78 μM, oleoyl-CoA 5.3 μM, room temperature 20 min, listed as 10-13, read-out: Activity Value [nM] (IC50, concentration at which 50% of produced free CoA was inhibited)

CC(Cc1ccc(C(C)(C)C)cc1)N1CCc2cc(S(=O)(=O)Nc3ccc(OCCCC4CCCCC4)cc3F)ccc2C1 (single isomer, unassigned) [Working Example 10-13] was tested, and the IC50 was 66 nM.

same assay, conditions: human MGAT2 enzyme fraction expressed in Sf9 insect cells, 0.5 μg/ml, 2-monooleoyl glycerol 0.78 μM, oleoyl-CoA 5.3 μM, room temperature 20 min, listed as 10-14, read-out: Activity Value [nM] (IC50, concentration at which 50% of produced free CoA was inhibited)

CC(Cc1ccc(C(C)(C)C)cc1)N1CCc2cc(S(=O)(=O)Nc3ccc(OCCCC4CCCCC4)cc3F)ccc2C1 (single isomer, unassigned) [Working Example 10-14] gave an IC50 of 106 nM.

same assay, conditions: human MGAT2 enzyme fraction expressed in Sf9 insect cells, 0.5 μg/ml, 2-monooleoyl glycerol 0.78 μM, oleoyl-CoA 5.3 μM, room temperature 20 min, read-out: Activity Value [nM] (IC50, concentration at which 50% of produced free CoA was inhibited)

In order of falling IC50:
1. O=S(=O)(Nc1ccc(CCCC2CCCC2)cc1F)c1ccc2c(c1)CCN(Cc1ccc(OC(F)(F)C(F)F)cc1)C2 [Working Example 7-50]  273 nM
2. O=S(=O)(Nc1ccc(CCCC2CCCC2)cc1F)c1ccc2c(c1)CCN(CCc1ccc(OC(F)(F)F)cc1)C2 [22-2]  256 nM
3. CC(C)(C)c1cnc(CN2CCc3cc(S(=O)(=O)Nc4ccc(CCCC5CCCC5)cc4F)ccc3C2)cn1 [Working Example 7-60]  233 nM
4. CC(C)(C)c1ccc(NC(=O)N2Cc3ccc(S(=O)(=O)Nc4ccc(OCC5CCCCC5)cc4F)cc3C2)cc1 [18-10]  230 nM
5. O=S(=O)(Nc1ccc(CCCC2CCCC2)cc1F)c1ccc2c(c1)CCN(Cc1cnc(C(F)(F)F)nc1)C2 [Working Example 6-78]  228 nM
6. O=C(OC1CCCCC1)N1CCc2cc(S(=O)(=O)Nc3ccc(CCCC4CCCC4)cc3F)ccc2C1 [26-1, Cyclohexyl 6-{[4-(3-cyclopentylpropyl)-2-fluorophenyl]sulfamoyl}-3,4-dihydroisoquinoline-2(1H)-carboxylate]  217 nM
7. CCCCCCOc1ccc(NS(=O)(=O)c2ccc3c(c2)CCN(Cc2cnc(C(C)(C)C)s2)C3)c(F)c1 [Working Example 7-19]  195 nM
8. CC(C)(C)c1ccc(NC(=O)N2Cc3ccc(S(=O)(=O)Nc4ccc(OCCCC(F)(F)F)cc4F)cc3C2)cc1 [18-26]  185 nM
9. O=S(=O)(Nc1ccc(CCCC2CCCC2)cc1F)c1ccc2c(c1)CCN(CCCC(F)(F)F)C2 [Working Example 7-54]  162 nM
10. O=C(c1ccc(C(F)(F)F)nc1)N1CCc2cc(S(=O)(=O)Nc3ccc(CCCC4CCCC4)cc3F)ccc2C1 [Working Example 1-5]  154 nM
11. CCCCCOc1ccc(NS(=O)(=O)c2ccc3c(c2)CN(C(=O)Nc2ccc(C(C)(C)C)cc2)C3)c(F)c1 [14-18]  147 nM
12. CCCCCCCc1ccc(NS(=O)(=O)c2ccc3c(c2)CCN(Cc2ccc(C(F)(F)F)nc2)C3)c(F)c1 [Working Example 7-29]  134 nM
13. CCCCCCOc1ccc(NS(=O)(=O)c2ccc3c(c2)CCN(CCc2ccc(C(C)(C)C)cc2)C3)c(F)c1 [Working Example 8-3]  133 nM
14. CC(C)CCCOc1ccc(NS(=O)(=O)c2ccc3c(c2)CN(C(=O)Nc2ccc(C(C)(C)C)cc2)C3)c(F)c1 [19-7]  99 nM
15. CC(C)(C)c1ccc(NC(=O)N2Cc3ccc(S(=O)(=O)Nc4ccc(OCCCOc5ccccc5)cc4F)cc3C2)cc1 [18-23]  92 nM
16. CC(C)(C)[C@H]1CC[C@H](C(=O)N2CCc3cc(S(=O)(=O)Nc4ccc(CCCC5CCCC5)cc4F)ccc3C2)CC1 [Working Example 1-6]  88 nM
17. CC(C)(C)c1ccc(CCN2CCc3cc(S(=O)(=O)Nc4ccc(OCCC5CCOCC5)cc4F)ccc3C2)cc1 [17-7]  79 nM
18. CCCCCCOc1ccc(NS(=O)(=O)c2ccc3c(c2)CCN(C(=O)Nc2ccc(CCCC)cc2)C3)c(F)c1 [14-3]  76 nM
19. CC(C)(C)c1ccc(NC(=O)N2Cc3ccc(S(=O)(=O)Nc4ccc(OCCCOc5cccc(Cl)c5)cc4F)cc3C2)cc1 [18-24]  62 nM
20. CCCCCCCc1ccc(NS(=O)(=O)c2ccc3c(c2)CCN(Cc2cnc(C(C)(C)C)s2)C3)c(F)c1 [Working Example 7-32]  42 nM
21. CCCCCCCOc1ccc(NS(=O)(=O)c2ccc3c(c2)CCN(CCc2ccc(C(C)(C)C)cc2)C3)c(F)c1 [17-1, 2-[2-(4-tert-Butylphenyl)ethyl]-N-[2-fluoro-4-(heptyloxy)phenyl]-1,2,3,4-tetrahydroisoquinoline-6-sulfonamide]  40 nM
22. CC(C)(C)c1ccc(CN2CCc3cc(S(=O)(=O)Nc4ccc(OCCCCCc5ccccc5)cc4F)ccc3C2)cn1 [Working Example 6-34]  36 nM
23. CCCCCCCc1ccc(NS(=O)(=O)c2ccc3c(c2)CCN(CCc2ccc(C(C)(C)C)cc2)C3)c(F)c1 [Working Example 6-18]  35 nM
24. CC(C)(C)c1ccc(NC(=O)N2Cc3ccc(S(=O)(=O)Nc4ccc(OCCCCOc5ccccc5)cc4F)cc3C2)cc1 [18-25]  33 nM
25. CCCCCCCCOc1ccc(NS(=O)(=O)c2ccc3c(c2)CCN(Cc2ccc(C(C)(C)C)nc2)C3)c(F)c1 [Working Example 6-33]  26 nM
26. CC(C)(C)c1ccc(NC(=O)N2Cc3ccc(S(=O)(=O)Nc4ccc(OCCc5ccccn5)cc4F)cc3C2)cc1 [19-12]  23 nM
